Series [1] is described as follows: Prodrug release in mouse assessed as nipecotic-acid concentration in brain at 15 mg/kg, iv after 30 mins. The class given is ADME, organism-based. As to conditions: in vivo, 0.5 h.
Series [2] can be described thus: Apparent permeability in MDCKII-MDR1 cells. As to conditions: dog, MDCK-MDR1. It is filed as ADME, cell-based, Canis lupus familiaris.
Series [3] can be described thus: Ratio of AUC in Brain to plasma in mouse at 10 mg/kg, po. The class given is ADME, organism-based. As to conditions: brain and plasma, read-out: Ratio AUC.
For series [4], the target named is Procathepsin L (Homo sapiens, UniProt P07711). The experiment in a line: Inhibition of human cathepsin L.
A short description of series [5]: Efflux ratio of apparent permeability across basolateral to apical side over apical to basolateral side in MDCK-MDR1 cells. The class given is ADME, cell-based, Canis lupus familiaris. As to conditions: dog.
The nature of series [6]: Inhibition of Toxoplasma gondii cathepsin L.
Series [7] in a line: Prodrug release in mouse brain assessed as Cmax of ibuprofen after 60 mins. The class given is ADME, tissue-based. The note with it: in vivo, 1 h. Also on record: time 60 min.
Series [8] can be described thus: Prodrug release in mouse brain assessed as AUC of ibuprofen after 60 mins. The class given is ADME, tissue-based. Further details: time 60 min. As to conditions: in vivo, 1 h.
Series [9] can be described thus: Prodrug release in mouse assessed as unbound brain to plasma concentration of ketoprofen at 30 mg/kg, po. It is filed as ADME, organism-based.
Series [10] in a line: Cmax in mouse brain at 48 mmol/kg, iv after 25 mins. The class given is ADME, organism-based. Further details: dose 48 mmol/Kg, time 25 min, route iv.
Series [11] is described as follows: AUC in mouse brain at 48 mmol/kg, iv after 25 mins. Also on record: time 25 min, dose 48 mmol/Kg, route iv. It is filed as ADME, organism-based. The note with it: in vivo.
The nature of series [12]: Unbound brain-to-plasma concentration ratio in mouse at 30 mg/kg, po. The note with it: brain and plasma, read-out: K(p,uu,brain). The class given is ADME, organism-based.

The results in this text go back to ChEMBL document CHEMBL5226339, “Strategies for Structural Modification of Small Molecules to Improve Blood-Brain Barrier Penetration: A Recent Perspective” (J Med Chem, 2021).

As a reminder, the Papp is the rate of passage across a membrane or cell layer, normalised by area and donor concentration. Broadly, the IC50 is the concentration at which inhibition is half-maximal. The low end stands for higher potency, the high end for lower potency. As a reminder, the efflux ratio is the permeability from basolateral to apical divided by that in the opposite direction, in the common usage. A word on the Cmax: it is the peak of the concentration-time curve.

Procathepsin L, sequence (P07711 whole entry): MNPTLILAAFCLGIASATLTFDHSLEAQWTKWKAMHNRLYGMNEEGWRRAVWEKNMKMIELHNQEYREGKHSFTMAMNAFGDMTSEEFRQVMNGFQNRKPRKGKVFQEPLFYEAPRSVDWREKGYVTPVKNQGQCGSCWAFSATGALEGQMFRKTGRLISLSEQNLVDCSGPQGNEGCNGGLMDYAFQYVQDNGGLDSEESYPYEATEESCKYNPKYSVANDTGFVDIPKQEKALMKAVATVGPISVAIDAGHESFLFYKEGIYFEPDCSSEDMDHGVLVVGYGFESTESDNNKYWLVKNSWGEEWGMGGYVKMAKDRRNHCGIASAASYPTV

On to `N[C@@H](COC(=O)C1CCCNC1)C(=O)O` (some centres undefined), for which, in series [1], the Drug metabolism was 450 nmol/g.

Turning to `CC(c1ccc(O)c(O)c1)N(C)C.Cl` (centres undefined), the Papp in series [2] is 1.13 ×10⁻⁶ cm/s.

`CC(C)CCN(c1nc(C#N)nc(N2CCOCC2)n1)C(C)c1ccc(F)cc1` (centres undefined): the Kp in series [3] amounted to 0.52. For the same compound, the IC50 in series [4] came out at 23 nM; in series [6], 92 nM. Also, in [5], the efflux ratio came out at 0.223.

As to `CC(C)Cc1ccc(C(C)C(=O)O[C@@H](CN(C)C)[C@H]2OC(=O)C(O)=C2O)cc1` (some centres undefined), in series [7], the Cmax came out at 52.6 µg/g. For the same compound, the AUC in series [8] was found to be 5870 µg·min/g.

Turning to `CC(c1cc(O)ccc1O)N(C)C.Cl` (centres undefined), in series [2], the Papp was determined as 26.3 ×10⁻⁶ cm/s.

In the case of `N#Cc1nc(N2CCOCC2)nc(N(Cc2ccc(F)cc2)CC2CCCNC2)n1` (centres undefined), in [3], the Kp is 0.15. The IC50 was 1200 nM in [4] and 181 nM in [6]. Also, in series [5], the efflux ratio was found to be 17.2.

As to `CC(c1cccc(O)c1O)N(C)C.Cl` (centres undefined), the Papp in [2] amounted to 23.9 ×10⁻⁶ cm/s.

On to `C[C@H](C(=O)Nc1cccc(C[C@@H](N)C(=O)O)c1)c1cccc(C(=O)c2ccccc2)c1`, for which, in series [9], the “K(p,uu,brain)” value came out at 0.13.

With `C[C@H](C(=O)Nc1ccc(C[C@@H](N)C(=O)O)cc1)c1cccc(C(=O)c2ccccc2)c1`, in [9], the “K(p,uu,brain)” value turned out to be 0.35.

The compound `CC(C)Cc1ccc(C(C)C(=O)O)cc1` (centres undefined) [IBUPROFEN] had a Cmax in series [10] of 10.7 µg/g. The compound further yielded an AUC in [11] of 1860 µg·min/g.

In the case of `CC(C(=O)O)c1cccc(C(=O)c2ccccc2)c1` (centres undefined) [KETOPROFEN], the Kp uu in series [12] stood at 0.01.
